Here are results for 2 compounds from patent US8435939B2, “Polypeptide anti-HIV agent containing the same” (priority 2000, dated 2013).

Where a SMILES comes first, the peptide text is derived from it. Bridges are numbered along the chain shown (N, C = ends). [ ]: non-standard residue; d: D form. 2Nal = N[C@@H](Cc1ccc2ccccc2c1)C(=O)O; Cit = NC(=O)NCCC[C@H](N)C(=O)O

The test system of data set [1] is virus-uninfected MT-4 cells. The experiment in a line: Cytotoxicity Test I: virus-uninfected MT-4 cells, MTT method. It counts as cell-based. Particulars: selective index, MT-4 CC50 over anti-HIV EC50. For orientation: Formazan colour is commonly taken as a measure of viable cells.
Assay in data set [2]: as above
It counts as cell-based. Particulars: human, virus-uninfected MT-4 cells, MTT method, read-out: CC50 (Test I), 50% survival concentration.

Another data set can be described thus: in vitro. It is filed as in vitro ADME, cat. As to conditions: serum. As to the method:
T140 or TC14012 was dissolved in cat serum (100 μL/100 μL Water) in an amount of 100 nmol, and maintained at 37° C. Each 8 μL of the respective samples were collected after 0 hour, 1 hour, 2 hours, 5 hours and 16 hours, and analyzed by reverse phase HPLC using 16% acetonitrile.

Data set [3] can be described thus: Cytotoxicity Test II: human PBMC, trypan blue dyeing method. It counts as cell-based. Particulars: human PBMC, trypan blue dyeing method, read-out: CC50 (Test II), 50% survival concentration.
In data set [4] the test system is human peripheral blood mononuclear cells (PBMC). The data set is described as above. It is filed as cell-based. Particulars: selective index, PBMC CC50 over anti-HIV EC50.
The test system of a further data set is HIV-1 (IIIB) strain. In words: Anti-HIV activity: inhibition of MT-4 cell death by HIV infection (MTT method). It counts as cell-based. Particulars: Human immunodeficiency virus 1, MT4, 120 h; MT-4 CD4+ T cells infected by HIV-1 (IIIB), 37° C., 5 days, MTT; average of at least three measurements; read-out: EC50 (concentration where MT-4 cell death by HIV infection is inhibited by 50%).

For `NCCCC[C@@H]1NC(=O)[C@H](CCCN=C(N)N)NC(=O)[C@H](Cc2ccc(O)cc2)NC(=O)[C@@H](NC(=O)[C@H](Cc2ccc3ccccc3c2)NC(=O)[C@H](CCCN=C(N)N)NC(=O)[C@@H](N)CCCN=C(N)N)CSSC[C@@H](C(=O)N[C@@H](CCCN=C(N)N)C(=O)O)NC(=O)[C@H](CCCNC(N)=O)NC(=O)[C@H](CCCN=C(N)N)NC(=O)[C@H](Cc2ccc(O)cc2)NC(=O)[C@@H]2CCCN2C(=O)[C@@H](CCCCN)NC1=O` [Compound T140, H-Arg-Arg-Nal-Cys-Tyr-Arg-Lys-DLys-Pro-Tyr-Arg-Cit-Cys-Arg-OH, reference compound] (H-RR[2Nal]CYRK[dK]PYR[Cit]CR-OH; disulfide 4-13), the “SI: CC50 (Test I)/EC50” value in data set [1] is >>300. For the same compound, the results for the CC50 in data set [2] (MT-4 cells (virus-uninfected)) and in data set [3] were > 1 µM and 96 µM, respectively. Moreover, the metabolised at 16 h, 0.5 mM in “in vitro” was ~70%. Further, in data set [4], the “SI: CC50 (Test II)/EC50” value is on record as 29000.
For the compound `Cc1cn([C@H]2C[C@H](N=[N+]=[N-])[C@@H](CO)O2)c(=O)[nH]c1=O` [AZT, 3′-azido-2′,3′-dideoxythymidine, reference compound], the “SI: CC50 (Test I)/EC50” value in data set [1] is on record as 4000. Also, the CC50 in data set [2] is 190 µM; in data set [3] (peripheral blood mononuclear cells (PBMC)), < 20 µM. For the same compound, the “SI: CC50 (Test II)/EC50” value in data set [4] is <410. Also, the EC50 with HIV-1 (IIIB) strain was 0.048 µM.
